# Test results: patent publication US20140271766A1 (priority 2013, published 2014)
# Several values for one entry are separate records, joined by “and”; a condition that tells them apart may be missing. Equal entries are not always repeated. Where two headings read alike, the source gives them in different places. Marks after values point to notes of the source that are not given here.
# Assays:
# [1] = buprenorphine, individual patient
# [2] = human, in vivo
# [3] = human, in vivo; remark: listed apart in the source
smiles,measurement,setting,value
CO[C@@]12CC[C@@]3(C[C@@H]1[C@](C)(O)C(C)(C)C)[C@H]1Cc4ccc(O)c5c4[C@@]3(CCN1CC1CC1)[C@H]2O5 [buprenorphine],Model predicted concentration at removal,[1]; 2 implants,263 pg/ml and 342 pg/ml (2×) and 252 pg/ml and 447 pg/ml and 338 pg/ml
same,Time from implant to reaching 2x last concentration,[1]; 2 implants,180 h
same,α-Half Life,[1]; 2 implants,115^b hours
same,β-Half Life,[1]; 2 implants,3578^bc hours
same,γ-Half life,[1]; 2 implants,120 weeks
same,Model predicted concentration at removal,[1]; 4 implants,6.69 pg/mL and 5.33 pg/mL and 5.76 pg/mL and 5.01 pg/mL and 7.78 pg/mL
same,Time from implant to reaching 2x last concentration,[1]; 4 implants,690 h and 710 h
same,β-Half Life,[1]; 4 implants,12.0 h and 16.0 h and 24.0 h
same,"Cave from Day 21 to removal, higher in higher dose group as compared with lower dose group",[2],93%
same,"Cmax, average, higher in higher dose group as compared with lower dose group",[2],62%
same,reduction in buprenorphine concentrations from Day 17 to removal,[2],≤ 50%
same,shortest half-life during the plateau phase,[2],25 weeks
same,time to reach plateau phase of buprenorphine concentrations,[2],≤ 21 days
same,Renal clearance,[3],0.0552 mL/min
